Laboratory results from patent US11197904B2, “Pharmaceutical compositions for preventions and managements of dementia, infectious diseases, cancers, periodontitis, dental caries, diabetes, obesity, osteoporosis and chronic pain and methods thereof” (Chung Shan Medical University, priority 2018, dated 2021).
pIC50: −log10 of the molar value. Converted amounts (≈) assume the structure as drawn. Like-named read-outs stand apart in the source and are kept apart here. Marks after values point to notes of the source that are not given here. Values belong to the compound of their own block, whether it stands above or below them.

Columns and labels:
[1] = system: Porphyromonas gingivalis (P.g.)
[2] = system: Streptococcus mutans (S.m., UA159)
[3] = system: Pseudomonas aeruginosa (P.a.)
[4] = system: Staphylococcus aureus (S.a)
[5] = system: Porphyromonas gingivalis (P.g.); experiment: microbe, parasite or virus in culture; conditions: read-out: IC50, 50% inhibition on bacterial proliferation, P. g.
[6] = system: Streptococcus mutans (S.m., UA159); experiment: microbe, parasite or virus in culture; conditions: read-out: IC50, 50% inhibition on bacterial proliferation, UA159
[7] = system: Pseudomonas aeruginosa (P.a.); experiment: microbe, parasite or virus in culture; conditions: read-out: IC50, 50% inhibition on bacterial proliferation, P. a.
[8] = system: Staphylococcus aureus (S.a); experiment: microbe, parasite or virus in culture; conditions: read-out: IC50, 50% inhibition on bacterial proliferation, S. a.
[9] = system: Lactobacillus reuteri (L.r.); experiment: Proliferation of the probiotic Lactobacillus reuteri (OD600); type: cell-based; conditions: 3 to 10 times higher than the listed IC50; Table 1
[10] = read-out: IC50, P. g., metals alone
[11] = read-out: IC50, UA159, metals alone
[12] = read-out: IC50, P. a., metals alone
[13] = read-out: IC50, S. a., metals alone

Compound: COc1ccc([C@@H]2Sc3ccccc3N(CCN(C)C)C(=O)[C@@H]2OC(C)=O)cc1 [Diltiagem]
IC50, 50% inhibition on bacterial proliferation, P. g. ([1]; single agent): 104 µg/mL (≈ 251 µM)
IC50, 50% inhibition on bacterial proliferation, UA159 ([2]; single agent): >300 µg/mL
IC50, 50% inhibition on bacterial proliferation, P. a. ([3]; single agent): >300 µg/mL
IC50, 50% inhibition on bacterial proliferation, S. a. ([4]; single agent): >300 µg/mL

Compound: O=C(O[C@@H]1Cc2c(O)cc(O)cc2O[C@@H]1c1cc(O)c(O)c(O)c1)c1cc(O)c(O)c(O)c1 [EGCG]
IC50, 50% inhibition on bacterial proliferation, P. g. ([1]; single agent): 83 µg/mL (≈ 181 µM)
IC50, 50% inhibition on bacterial proliferation, UA159 ([2]; single agent): 137 µg/mL (≈ 299 µM)
IC50, 50% inhibition on bacterial proliferation, P. a. ([3]; single agent): 173 µg/mL (≈ 377 µM)
IC50, 50% inhibition on bacterial proliferation, S. a. ([4]; single agent): 142 µg/mL (≈ 310 µM)

Compound: NC[C@H]1O[C@H](O[C@H]2[C@H](O)[C@@H](O[C@H]3O[C@H](CO)[C@@H](O)[C@H](N)[C@H]3O)[C@H](N)C[C@@H]2N)[C@H](N)C[C@@H]1O [Tobramycin]
IC50 [5]: 4 µg/mL (≈ 8.56 µM)
IC50 [6]: < 3 µg/mL
IC50 [7]: 9 µg/mL (≈ 19.3 µM)
IC50 [8]: < 3 µg/mL

Compound: Cc1nc(C)c(C)nc1C [Tetramethyl-pyrazine]
IC50 [5]: 37 µg/mL (≈ 272 µM)
IC50 [6]: > 300 µg/mL
IC50 [7]: > 300 µg/mL
IC50 [8]: > 300 µg/mL

Compound: C[C@@H]1[C@H](O)[C@@H](C)/C=C/C=C/CC/C=C/C=C/C=C/C=C/C(O[C@H]2O[C@H](C)[C@@H](O)[C@H](N)[C@@H]2O)CC2O[C@](O)(CC(O)C(O)CCC(O)CC(O)CC(O)CC(=O)O[C@H]1C)CC(O)C2C(=O)O (stereo partly shown) [Nystatin]
IC50, 50% inhibition on bacterial proliferation, P. g. ([1]; single agent): 228 µg/mL (≈ 246 µM)
IC50, 50% inhibition on bacterial proliferation, UA159 ([2]; single agent): >300 µg/mL
IC50, 50% inhibition on bacterial proliferation, P. a. ([3]; single agent): >300 µg/mL
IC50, 50% inhibition on bacterial proliferation, S. a. ([4]; single agent): >300 µg/mL

Compound: N=C(N)NCCC[C@H](N)C(=O)N[C@@H](Cc1ccccc1)C(=O)O [ArgPhe]
IC50, 50% inhibition on bacterial proliferation, P. g. [1]: >100 µg/mL
IC50, 50% inhibition on bacterial proliferation, UA159 ([2]; S.m., UA159): >100 µg/mL
IC50, 50% inhibition on bacterial proliferation, P. a. ([3]; P.a., 16 h): >100 µg/mL
IC50, 50% inhibition on bacterial proliferation, S. a. ([4]; S.a, 16 h): >100 µg/mL

Compound: CC(O)(P(=O)(O)O)P(=O)(O)O [Etidronate]
IC50 [5]: 46 µg/mL (≈ 223 µM)
IC50 [6]: 597 µg/mL (≈ 2900 µM)
IC50 [7]: > 1000 µg/mL
IC50 [8]: 350 µg/mL (≈ 1700 µM)

Compound: Phospholipase A2
IC50, 50% inhibition on bacterial proliferation, P. g. ([1]; single agent): >10 µg/mL
IC50, 50% inhibition on bacterial proliferation, UA159 ([2]; single agent): >10 µg/mL
IC50, 50% inhibition on bacterial proliferation, P. a. ([3]; single agent): >10 µg/mL
IC50, 50% inhibition on bacterial proliferation, S. a. ([4]; single agent): >10 µg/mL

Compound: COc1ccc(CCN(C)CCCC(C#N)(c2ccc(OC)c(OC)c2)C(C)C)cc1OC (stereo not shown) [Verapamil]
IC50 [5]: 137 µg/mL (≈ 301 µM)
IC50 [6]: > 300 µg/mL
IC50 [7]: > 300 µg/mL
IC50 [8]: > 300 µg/mL

Compound: C[C@@H]1CC[C@@]2(OC1)O[C@H]1[C@@H](O)[C@H]3[C@@H]4CC[C@H]5C[C@@H](O[C@@H]6O[C@H](CO)[C@H](O[C@@H]7O[C@H](CO)[C@@H](O)[C@H](O[C@@H]8OC[C@@H](O)[C@H](O)[C@H]8O)[C@H]7O[C@@H]7O[C@H](CO)[C@H](O)[C@H](O[C@@H]8O[C@H](CO)[C@@H](O)[C@H](O)[C@H]8O)[C@H]7O)[C@H](O)[C@H]6O)[C@H](O)C[C@]5(C)[C@H]4CC[C@]3(C)[C@H]1[C@@H]2C [Digitonin]
IC50 [5]: 123 µg/mL (≈ 100 µM)
IC50 [6]: > 300 µg/mL
IC50 [7]: > 300 µg/mL
IC50 [8]: > 300 µg/mL

Compound: COc1cc(/C=C/C(=O)CC(=O)/C=C/c2ccc(O)c(OC)c2)ccc1O [Curcumin]
Inhibition on proliferation of Lactobacillus reuteri [9]: C*, Curcumin
IC50 [5]: 126 µg/mL (≈ 342 µM)
IC50 [6]: 42 µg/mL (≈ 114 µM)
IC50 [7]: 302 µg/mL (≈ 820 µM)
IC50 [8]: < 1000 µg/mL

Compound: Cc1cc(N)c2ccccc2[n+]1CCCCCCCCCC[n+]1c(C)cc(N)c2ccccc21 [Dequalinium]
IC50 [5]: 3 µg/mL
IC50 [6]: 1 µg/mL
IC50 [7]: > 10 µg/mL
IC50 [8]: 2 µg/mL

Compound: CC(Cc1ccc(O)c(O)c1)C(C)Cc1ccc(O)c(O)c1 (stereo not shown) [Nordihydro-guaiaretic acid]
IC50 [5]: < 30 µg/mL
IC50 [6]: 50 µg/mL (≈ 165 µM)
IC50 [7]: > 300 µg/mL
IC50 [8]: 66 µg/mL (≈ 218 µM)

pIC50 [1, 10]: 2.97
pIC50 [2, 11]: 3.02
pIC50 [3, 12]: 2.94
pIC50 [4, 13]: 3.03
Compound: O=S(=O)([O-])[O-].[Zn+2] [ZnSO4]
Inhibition on proliferation of Lactobacillus reuteri [9]: ZnSO4*

pIC50 [1, 10]: 4.13
pIC50 [2, 11]: 3.19
pIC50 [3, 12]: 4.49
pIC50 [4, 13]: < 3.94
Compound: N.N.N.N.N.N.N.N.N.N.N.N.N.N.[Cl-].[Cl-].[Cl-].[Cl-].[Cl-].[Cl-].[O-2].[O-2].[Ru+3].[Ru+3].[Ru+4] [Ruthenium red]
Inhibition on proliferation of Lactobacillus reuteri [9]: RuR*,

pIC50 [1, 10]: 4.85
pIC50 ([1]; read-out: IC50 of single drug, Table 14, P. g., drug alone): 4.85
pIC50 [2, 11]: 4.46
pIC50 ([2]; read-out: IC50 of single drug, Table 14, UA159, drug alone): 4.46
pIC50 [3, 12]: 4.36
pIC50 ([3]; read-out: IC50 of single drug, Table 14, P. a., drug alone): 4.38
pIC50 [4, 13]: 4.55
pIC50 ([4]; read-out: IC50 of single drug, Table 14, S. a., drug alone): 4.25
Compound: [Cl][Ag] [AgCl]
Inhibition on proliferation of Lactobacillus reuteri [9]: AgCl*

Compound: Cardiotoxin
IC50, 50% inhibition on bacterial proliferation, P. g. ([1]; single agent): 11 µg/mL
IC50, 50% inhibition on bacterial proliferation, UA159 ([2]; single agent): >10 µg/mL
IC50, 50% inhibition on bacterial proliferation, P. a. ([3]; single agent): >10 µg/mL
IC50, 50% inhibition on bacterial proliferation, S. a. ([4]; single agent): >10 µg/mL

Compound: O[C@H](CS)[C@H](O)CS (racemic) [Dithiothreitol]
IC50 [5]: > 300 µg/mL
IC50 [6]: > 300 µg/mL
IC50 [7]: > 300 µg/mL
IC50 [8]: > 300 µg/mL

pIC50 [1, 10]: < 2.52
pIC50 [2, 11]: < 2.52
pIC50 [3, 12]: 2.38
pIC50 [4, 13]: 2.44
Compound: [Cl-].[Cl-].[Sr+2] [SrCl2]
Inhibition on proliferation of Lactobacillus reuteri [9]: SrCl2*
